Test results reported in patent publication US20150098905A1, “METHODS TO DETECT A FUNGAL CELL” (priority 2012, published 2015).
In brackets after ≈: the same amount, converted by molar mass. Numbered stars: 1 amine (or outer) side, 2 acyl side, 3 side chain; on linkers, the order of the positions; unused ones are H or OH. Bridge positions count the residues as written; N and C are the ends. Square brackets hold non-standard residues; d marks the D form. Peptide text beside a SMILES is read from it. * marks the point of attachment. hTyr(3S-OH,4S-OH,3'-OSO3H) = N[C@H](C(=O)O)[C@H](O)[C@@H](O)c1ccc(O)c(OS(=O)(=O)O)c1; pTerphenylCO(4''-OnC5H11) = CCCCCOc1ccc(-c2ccc(-c3ccc(C(=O)*)cc3)cc2)cc1; Orn(4R-OH,5R-OH) = O=C([C@H](C[C@@H](O)[C@@H](O)N[*:3])N[*:1])[*:2]; hTyr(3S-OH,4S-OH) = N[C@H](C(=O)O)[C@H](O)[C@@H](O)c1ccc(O)cc1; Pro(3S-OH,4S-Me) = C[C@H]1CN[C@H](C(=O)O)[C@H]1O; X1 = CCCCCOc1ccc(-c2cc(-c3ccc(C(=O)*)cc3)no2)cc1; Gln(3R-OH) = NC(=O)C[C@@H](O)[C@H](N)C(=O)O; Hyp = O=C(O)[C@@H]1C[C@@H](O)CN1

What was measured:
[1] = test system: C. albicans and A. fumigatus cells; assay: Pretreatment with unlabeled antifungal drug followed by probe labeling; format: cell-based, Candida albicans, Aspergillus fumigatus; settings: for effect of pretreatment on CSF-BOD labeling: pretreatment C. albicans 1 h, A. fumigatus 2 h, azoles at one dilution below the MIC, then CSF-BOD; for effect of pretreatment on labeling of cells by POS-BOD: pretreatment with unlabeled drug, then POS-BOD
Source text: To illustrate the potential of CSF-BOD and POS-BOD for visualizing fungal cells, the reagent was used to probe for the presence of Candida and Aspergillus species in a variety of matrices including solid and liquid growth media. The clinical A. fumigatus wild type strain R21 and Candida albicans ATCC strain 90028 were used for all the experiments. For Aspergillus, one drop of yeast extract peptone dextrose (YPD) agar was placed in the upper right corner of each well of a 15-well multitest slide followed by the addition of 10 μl of saline containing 105 conidia of R21. The slide was placed in a sterile petri dish with distilled water to provide a moist environment and incubated in a 37° C. incubator for 10-16 hours to facilitate germination and growth of hyphal elements. A 10 μl aliquot of CSF-BOD (170 ng/ml) or POS-BOD (150 ng/ml) was added to each well and incubated for 6 h at 37° C., followed by washing 3 times with sterile water and drying by vacuum. For Candida, an overnight culture of C. albicans was grown, washed by centrifugation and resuspended in dH2O. The yeast cells were added to RPMI and incubated at 200 rpm for 1 h at 37° C. to form germ tubes before being washed and resuspended in a 1 ml solution of CSF-BOD (120 ng/mil) or POS-BOD (150 ng/ml). The cells with drug were incubated again at 200 rpm for 1 h at 37° C., washed and resuspended in 50 ml of dH2O. A 15 well slide was prepared using a poly-L-lysine to tightly adhere cells to the wells. A 10 μL aliquot of Candida cells was placed on each well and incubated for 10 minutes, aspirated off, and 1 μL Slow Fade Antifade reagent was added to prolong the fluorescent life and moisture level of the cells on the each slide. Each slide was observed under 100× magnification with the total internal reflection objective lens (TIRF) of a Nikon Eclipse 90i fluorescent microscope. The 15 wells of the slides were examined individually using Volocity 3D Image Analysis Software (PerkinElmer). Individual cells, hyphal elements and clusters of cells were visualized, analyzed, and captured in bright field lighting and repeated under a Green Fluorescent Protein (GFP) light setting.

[2] = test system: A. fumigatus wild type strain R21; assay: Cell labeling with fluorescent probe, fluorescence microscopy; format: cell-based, Aspergillus fumigatus; settings: control, species not given
Source text: To illustrate the potential of CSF-BOD and POS-BOD for visualizing fungal cells, the reagent was used to probe for the presence of Candida and Aspergillus species in a variety of matrices including solid and liquid growth media. The clinical A. fumigatus wild type strain R21 and Candida albicans ATCC strain 90028 were used for all the experiments. For Aspergillus, one drop of yeast extract peptone dextrose (YPD) agar was placed in the upper right corner of each well of a 15-well multitest slide followed by the addition of 10 μl of saline containing 105 conidia of R21. The slide was placed in a sterile petri dish with distilled water to provide a moist environment and incubated in a 37° C. incubator for 10-16 hours to facilitate germination and growth of hyphal elements. A 10 μl aliquot of CSF-BOD (170 ng/ml) or POS-BOD (150 ng/ml) was added to each well and incubated for 6 h at 37° C., followed by washing 3 times with sterile water and drying by vacuum. For Candida, an overnight culture of C. albicans was grown, washed by centrifugation and resuspended in dH2O. […] Individual cells, hyphal elements and clusters of cells were visualized, analyzed, and captured in bright field lighting and repeated under a Green Fluorescent Protein (GFP) light setting.

C. albicans = assay: Antifungal activity (MIC) of labeled and unlabeled caspofungin; format: cell-based; settings: Candida albicans
Protocol: A derivative of CSF using BODIPY (BOD), an analog that resembles fluorescein but is smaller and more hydrophobic, was produced to test the CSF-BOD with various fungal pathogens. BODIPY-succinimidate was incubated with pure CSF in the presence of triethylamine as proton acceptor in DMF. The crude product was purified by TLC silica gel chromatography and characterized using mass spectroscopy, fluorescence and UV spectroscopy. The modified agent retained its specificity and sensitivity to the fungal target. […] BODIPY coupled to posaconazole (POS) was formed by modifying a single hydroxyl group of posaconazole with succinic anhydride (FIG. 6).

Compound	effect of pretreatment on CSF-BOD labeling [1]	labeling by unconjugated drug or dye alone [2]	MIC (C. albicans)	effect of pretreatment on labeling of cells by POS-BOD [1]
CCCCCOc1ccc(-c2cc(-c3ccc(C(=O)N[C@H]4C[C@@H](O)[C@@H](O)NC(=O)[C@@H]5[C@@H](O)[C@@H](C)CN5C(=O)[C@H]([C@H](O)CC(N)=O)NC(=O)[C@H]([C@H](O)[C@@H](O)c5ccc(O)c(OS(=O)(=O)O)c5)NC(=O)[C@@H]5C[C@@H](O)CN5C(=O)[C@H]([C@@H](C)O)NC4=O)cc3)no2)cc1 [micafungin] (X1-[Orn(4R-OH,5R-OH)]T[Hyp][hTyr(3S-OH,4S-OH,3'-OSO3H)][Gln(3R-OH)][Pro(3S-OH,4S-Me)]; lactam 1-C)	eliminated the labeling			
CCCCCOc1ccc(-c2ccc(-c3ccc(C(=O)N[C@H]4C[C@@H](O)[C@@H](O)NC(=O)[C@@H]5[C@@H](O)[C@@H](C)CN5C(=O)[C@H]([C@@H](C)O)NC(=O)[C@H]([C@H](O)[C@@H](O)c5ccc(O)cc5)NC(=O)[C@@H]5C[C@@H](O)CN5C(=O)[C@H]([C@@H](C)O)NC4=O)cc3)cc2)cc1 [anidulafungin] ({pTerphenylCO(4''-OnC5H11)}-[Orn(4R-OH,5R-OH)]T[Hyp][hTyr(3S-OH,4S-OH)]T[Pro(3S-OH,4S-Me)]; lactam 1-C)	eliminated the labeling			
CCC(C)n1ncn(-c2ccc(N3CCN(c4ccc(OCC5COC(Cn6cncn6)(c6ccc(Cl)cc6Cl)O5)cc4)CC3)cc2)c1=O (stereo not shown) [itraconazole]	no effect			
boron-dipyrromethene [BODIPY]		failed to produce any labeling		
OC(Cn1cncn1)(Cn1cncn1)c1ccc(F)cc1F [fluconazole]	no effect			
CC[C@H](C)C[C@H](C)CCCCCCCCC(=O)N[C@H]1C[C@@H](O)[C@@H](NCCN)NC(=O)[C@@H]2[C@@H](O)CCN2C(=O)[C@H]([C@H](O)CCN)NC(=O)[C@H]([C@H](O)[C@@H](O)c2ccc(O)cc2)NC(=O)[C@@H]2C[C@@H](O)CN2C(=O)[C@H]([C@@H](C)O)NC1=O [caspofungin]	intensified the fluorescence	failed to produce any labeling	0.06 µg/mL (≈ 0.0549 µM)	little effect
C[C@@H](c1ncncc1F)[C@](O)(Cn1cncn1)c1ccc(F)cc1F [voriconazole]	no effect			greatly diminished or eliminated the fluorescence signal
CC[C@@H]([C@H](C)O)n1ncn(-c2ccc(N3CCN(c4ccc(OC[C@@H]5CO[C@@](Cn6cncn6)(c6ccc(F)cc6F)C5)cc4)CC3)cc2)c1=O [posaconazole]	no effect			greatly diminished or eliminated the fluorescence signal
